Like-named read-outs stand apart in the source and are kept apart here. Where a SMILES comes first, the peptide text is derived from it.
Assays:
[1] = mouse, in vivo, ip
Procedure: A single intraperitoneal injection on day 1 was followed by a 14-day observation period. Parameters monitored included mortality, morbidity, clinical signs, and body weight. At the study’s end, gross pathology and organ necropsy were conducted. […] Evaluations encompassed clinical observations, body weight, food consumption, hematology, blood chemistry, gross pathology, selected organ necropsy, and weight, and histopathology examinations. Comprehensive study details are in Appendix pharmacological studies-1 and -2. […]
was assessed in the present study.
Methods: 4 groups (5 males and 5 females per group) were assigned for this study. In each gender, reference item control groups (1F+1M) received the reference item (Saline Solution, NaCl 0,9%) and 3 treated groups […]
4F+4M) mg/kg. All animals were IP dosed and followed daily for 2 weeks (5 days a week). During the study, mortality and general clinical observation, body weight, food consumption, hematology, blood chemistry, gross pathology, selected organ necropsy and weight and histopathology examination of control and high dose groups […]
dosing of five female and five male mice (Table 1 and Table 2). The choice of the number and the gender of the animals were based on OECD guidelines.
Study variables and end points […]
Observations for signs of morbidity and mortality were performed daily. […] The time of death was recorded as precisely as possible. […]

[2] = Time-dependent stability in water and in plasma on storage, LC-MS; type: physicochemical; conditions: read-out: % of area at T=0
Procedure: The standard deviations were below the acceptable values (<15%) showing that the accuracy is correct and compliant with standard quantification protocols. […]
the linearity of the method. […]
for concentrations below 0.5 µM.
The second step of the study consisted to analyse the stability of the peptide in order to evaluate the feasibility of the quantification of APLN-DM in the samples obtained in vivo.
Quantification in the plasma after protein precipitation
Before the injection for LC-MS analysis, the plasmas had to be processed for elimination of major proteins, which can disturb the analysis. Proteins were precipitated by an organic solvent. […]
The second method was adapted from the protocol described by O. Chertov et al. (Proteomics 2004, 4, 1195- […]
1203). […] 7 µl of this solution were […]
added to 70 µl plasma or 70 µl water (control).
10 µl of each sample were mixed to 20 µl water, vortexed, mixed to 45 µl d’acetonitrile + 0.1% trifluoroacetic acid, sonicated, vortexed, centrifuged for 15 minutes. The supernatant was evaporated and the pellet was re-suspended in 30 µl water. The 2 samples (peptide in plasma or in water) were injected in LC-MS according to the conditions previously established.
With this method, the recovery of APLN-DM in the plasma after protein precipitation was sufficient.
The coefficient of variation was acceptable. This method was used for the stability study in the plasma.
7 µl were added to 3 samples […]
of 70 µl plasma or 70 µl water.
Six solutions were obtained:
-W RT : solution in water stored at room temperature
-W 4°C : solution in water stored at 4°C
-W -18°C : solution in water stored at -18°C
-P RT : solution in plasma stored at room temperature
-P 4°C : solution in plasma stored at 4°C
-P -18°C : solution in plasma stored at -18°C. […]
processed for protein extraction (according to the method previously described), and then injected in […]
LC-MS for APLN-DM quantification. For […]
each sample, % were calculated according to the area obtained at T=0 which correspo nd to 100%.

[3] = in vitro
[4] = mouse

Compound: CSCC[C@H](NC(=O)[C@@H]1CCCN1C(=O)CNC(=O)[C@H](CCCCN)NC(=O)[C@H](Cc1c[nH]cn1)NC(=O)[C@H](CO)NC(=O)[C@H](CC(C)C)NC(=O)[C@H](CCCNC(=N)N)NC(=O)[C@@H]1CCCN1C(=O)[C@H](CCCNC(=N)N)NC(=O)[C@H](CCC(N)=O)NC(=O)[C@H](CO)NC(=O)[C@H](CO)NC(=O)[C@H](Cc1ccccc1)NC(=O)[C@H](CCCCN)NC(=O)[C@H](CO)NC(=O)[C@H](CO)NC(=O)CNC(=O)CNC(=O)[C@H](CCC(N)=O)NC(=O)[C@H](Cc1c[nH]c2ccccc12)NC(=O)[C@@H]1CCCN1C(=O)CNC(=O)[C@@H]1CCCN1C(=O)CNC(=O)[C@H](CC(N)=O)NC(=O)[C@H](CCCNC(=N)N)NC(=O)[C@H](CO)NC(=O)CNC(=O)[C@H](CCCNC(=N)N)NC(=O)[C@@H]1CCCN1C(=O)[C@H](CCC(N)=O)NC(=O)[C@@H](NC(=O)[C@@H](N)CC(C)C)C(C)C)C(=O)N1CCC[C@H]1C(=O)N[C@@H](Cc1ccccc1)C(=O)O [APLN-DM] (H-LVQPRGSRNGPGPWQGGSSKFSSQRPRLSHKGPMPF-OH)
- MTD repeated administrations / highest tested dose found safe [1]: 300 mg/kg/day
- remaining at 2 h ([2]; P 4°C): 51%
- remaining at 168 h ([2]; P 4°C): 6%
- remaining at 1 h ([2]; P 4°C: in plasma, 4°C): 66%
- remaining at 2 h ([2]; P -18°C): 66%
- remaining at 5 h ([2]; P -18°C): 114%
- remaining at 24 h ([2]; P -18°C): 86%
- remaining at 48 h ([2]; P -18°C): 97%
- remaining at 72 h ([2]; P -18°C): 89%
- remaining at 168 h ([2]; P -18°C): 12%
- remaining at 1 h ([2]; P -18°C: in plasma, -18°C): 75%
- remaining at 2 h ([2]; P RT): 17%
- remaining at 5 h ([2]; P RT): 13%
- remaining at 24 h ([2]; P RT): 8%
- remaining at 48 h ([2]; P RT): 14%
- remaining at 72 h ([2]; P RT): 7%
- remaining at 168 h ([2]; P RT): 22%
- remaining at 1 h ([2]; P RT: in plasma, room temperature): 21%
- % Protein bound, 1st [3]: 56.8%
- % Protein bound, 2nd [3]: 52.2%
- % Recovery, 1st [3]: 123%
- % Recovery, 2nd [3]: 125%
- % Recovery, Mean [3]: 124%
- fraction unbound at 4 h, 1e-05 M ([3]; human, plasma): 0.46
- Half-life, 1st [4]: 0.645 h
- Half-life, 2nd [4]: 1.867 h
- half-life ([4]; liver microsomes): > 1 h
- microsomal CLint ([4]; liver microsomes): < 116 µL/min/mg

Reference: article PMC11904221 (EMBO Molecular Medicine, 2025)
